Results taken from ChEMBL document CHEMBL4393680, “Design, synthesis and biological evaluation of novel thioquinazolinone-based 2-aminobenzamide derivatives as potent histone deacetylase (HDAC) inhibitors” (Eur J Med Chem, 2019).
pIC50: −log10 of the molar value.

Key:
A-375 [1] = assay: Antiproliferative activity against human A375 cells assessed as reduction in cell growth at 8 uM incubated for 72 hrs by CCK-8 assay relative to control; type: functional; settings: A-375, 72 h
A-375 [2] = assay: Antiproliferative activity against human A375 cells assessed as reduction in cell growth at 2 uM incubated for 72 hrs by CCK-8 assay relative to control; type: functional; settings: A-375, 72 h
HeLa [3] = assay: Antiproliferative activity against human HeLa cells assessed as reduction in cell growth at 8 uM incubated for 72 hrs by CCK-8 assay relative to control; type: functional
HeLa [4] = assay: Antiproliferative activity against human HeLa cells assessed as reduction in cell growth at 2 uM incubated for 72 hrs by CCK-8 assay relative to control; type: functional
A549 [5] = assay: Antiproliferative activity against human A549 cells assessed as reduction in cell growth at 8 uM incubated for 72 hrs by CCK-8 assay relative to control; type: functional; settings: A549, 72 h
A549 [6] = assay: Antiproliferative activity against human A549 cells assessed as reduction in cell growth at 2 uM incubated for 72 hrs by CCK-8 assay relative to control; type: functional; settings: A549, 72 h
HCT-116 [7] = assay: Antiproliferative activity against human HCT116 cells assessed as reduction in cell growth at 8 uM incubated for 72 hrs by CCK-8 assay relative to control; type: functional; settings: HCT-116, 72 h
HCT-116 [8] = assay: Antiproliferative activity against human HCT116 cells assessed as reduction in cell growth at 2 uM incubated for 72 hrs by CCK-8 assay relative to control; type: functional; settings: HCT-116, 72 h
SMMC-7721 [9] = assay: Antiproliferative activity against human SMMC7721 cells assessed as reduction in cell growth at 8 uM incubated for 72 hrs by CCK-8 assay relative to control; type: functional; settings: SMMC-7721, 72 h
SMMC-7721 [10] = assay: Antiproliferative activity against human SMMC7721 cells assessed as reduction in cell growth at 2 uM incubated for 72 hrs by CCK-8 assay relative to control; type: functional; settings: SMMC-7721, 72 h
A-375 [11] = assay: Antiproliferative activity against human A375 cells assessed as reduction in cell growth incubated for 72 hrs by CCK-8 assay; type: functional, cell-based; settings: A-375, 72 h
HeLa [12] = assay: Antiproliferative activity against human HeLa cells assessed as reduction in cell growth incubated for 72 hrs by CCK-8 assay; type: functional, cell-based
A549 [13] = assay: Antiproliferative activity against human A549 cells assessed as reduction in cell growth incubated for 72 hrs by CCK-8 assay; type: functional, cell-based; settings: A549, 72 h
HCT-116 [14] = assay: Antiproliferative activity against human HCT116 cells assessed as reduction in cell growth incubated for 72 hrs by CCK-8 assay; type: functional, cell-based; settings: HCT-116, 72 h
SMMC-7721 [15] = assay: Cell cycle arrest in human SMMC7721 cells assessed as accumulation at G0/G1 phase at 0.25 uM incubated for 48 hrs by propidium iodide staining based flow cytometry (Rvb=77%); type: functional
SMMC-7721 [16] = assay: Cell cycle arrest in human SMMC7721 cells assessed as accumulation at S phase at 0.25 uM incubated for 48 hrs by propidium iodide staining based flow cytometry (Rvb=6.83%); type: functional
SMMC-7721 [17] = assay: Cell cycle arrest in human SMMC7721 cells assessed as accumulation at G2/M phase at 0.25 uM incubated for 48 hrs by propidium iodide staining based flow cytometry (Rvb=16.17%); type: functional
SMMC-7721 [18] = assay: Cell cycle arrest in human SMMC7721 cells assessed as accumulation at G0/G1 phase at 1 uM incubated for 48 hrs by propidium iodide staining based flow cytometry (Rvb=77%); type: functional
SMMC-7721 [19] = assay: Cell cycle arrest in human SMMC7721 cells assessed as accumulation at S phase at 1 uM incubated for 48 hrs by propidium iodide staining based flow cytometry (Rvb=6.83%); type: functional
SMMC-7721 [20] = assay: Cell cycle arrest in human SMMC7721 cells assessed as accumulation at G2/M phase at 1 uM incubated for 48 hrs by propidium iodide staining based flow cytometry (Rvb=16.17%); type: functional
SMMC-7721 [21] = assay: Cell cycle arrest in human SMMC7721 cells assessed as accumulation at G0/G1 phase at 4 uM incubated for 48 hrs by propidium iodide staining based flow cytometry (Rvb=77%); type: functional
SMMC-7721 [22] = assay: Cell cycle arrest in human SMMC7721 cells assessed as accumulation at S phase at 4 uM incubated for 48 hrs by propidium iodide staining based flow cytometry (Rvb=6.83%); type: functional
SMMC-7721 [23] = assay: Cell cycle arrest in human SMMC7721 cells assessed as accumulation at G2/M phase at 4 uM incubated for 48 hrs by propidium iodide staining based flow cytometry (Rvb=16.17%); type: functional
SMMC-7721 [24] = assay: Induction of apoptosis in human SMMC7721 cells assessed as viable cells at 0.25 uM incubated for 48 hrs by Annexin-V-FITC/propidium iodide staining based flow cytometry (Rvb=93.5%); type: functional; settings: SMMC-7721, 48 h, read-out: Activity
SMMC-7721 [25] = assay: Induction of apoptosis in human SMMC7721 cells assessed as early apoptotic cells at 0.25 uM incubated for 48 hrs by Annexin-V-FITC/propidium iodide staining based flow cytometry (Rvb=2.88%); type: functional
SMMC-7721 [26] = assay: Induction of apoptosis in human SMMC7721 cells assessed as late apoptotic cells at 0.25 uM incubated for 48 hrs by Annexin-V-FITC/propidium iodide staining based flow cytometry (Rvb=1.73%); type: functional
SMMC-7721 [27] = assay: Induction of apoptosis in human SMMC7721 cells assessed as necrotic cells at 0.25 uM incubated for 48 hrs by Annexin-V-FITC/propidium iodide staining based flow cytometry (Rvb=1.88%); type: functional
SMMC-7721 [28] = assay: Induction of apoptosis in human SMMC7721 cells assessed as viable cells at 1 uM incubated for 48 hrs by Annexin-V-FITC/propidium iodide staining based flow cytometry (Rvb=93.5%); type: functional; settings: SMMC-7721, 48 h, read-out: Activity
SMMC-7721 [29] = assay: Induction of apoptosis in human SMMC7721 cells assessed as early apoptotic cells at 1 uM incubated for 48 hrs by Annexin-V-FITC/propidium iodide staining based flow cytometry (Rvb=2.88%); type: functional
SMMC-7721 [30] = assay: Induction of apoptosis in human SMMC7721 cells assessed as late apoptotic cells at 1 uM incubated for 48 hrs by Annexin-V-FITC/propidium iodide staining based flow cytometry (Rvb=1.73%); type: functional
SMMC-7721 [31] = assay: Induction of apoptosis in human SMMC7721 cells assessed as necrotic cells at 1 uM incubated for 48 hrs by Annexin-V-FITC/propidium iodide staining based flow cytometry (Rvb=1.88%); type: functional
SMMC-7721 [32] = assay: Induction of apoptosis in human SMMC7721 cells assessed as viable cells at 4 uM incubated for 48 hrs by Annexin-V-FITC/propidium iodide staining based flow cytometry (Rvb=93.5%); type: functional; settings: SMMC-7721, 48 h, read-out: Activity
SMMC-7721 [33] = assay: Induction of apoptosis in human SMMC7721 cells assessed as early apoptotic cells at 4 uM incubated for 48 hrs by Annexin-V-FITC/propidium iodide staining based flow cytometry (Rvb=2.88%); type: functional
SMMC-7721 [34] = assay: Induction of apoptosis in human SMMC7721 cells assessed as late apoptotic cells at 4 uM incubated for 48 hrs by Annexin-V-FITC/propidium iodide staining based flow cytometry (Rvb=1.73%); type: functional
SMMC-7721 [35] = assay: Induction of apoptosis in human SMMC7721 cells assessed as necrotic cells at 4 uM incubated for 48 hrs by Annexin-V-FITC/propidium iodide staining based flow cytometry (Rvb=1.88%); type: functional
NIH3T3 = assay: Cytotoxicity against mouse NIH/3T3 cells assessed as reduction in cell viability after 48 hrs by CCK8 assay; type: cell-based; settings: NIH3T3, 48 h

COc1ccc2c(=O)n(CC/C=C/[S+](C)[O-])c(SCc3ccc(C(=O)Nc4ccccc4N)cc3)nc2c1 (stereo not drawn)
inhibition at 8 µM (A-375 [1]): 67.2% | inhibition at 2 µM (A-375 [2]): 34.4% | inhibition at 8 µM (HeLa [3]): 74.1% | inhibition at 2 µM (HeLa [4]): 35.8% | inhibition at 8 µM (A549 [5]): 56.3% | inhibition at 2 µM (A549 [6]): 36.9% | inhibition at 8 µM (HCT-116 [7]): 88% | inhibition at 2 µM (HCT-116 [8]): 59% | inhibition at 8 µM (SMMC-7721 [9]): 57.2% | inhibition at 2 µM (SMMC-7721 [10]): 6.9% | pIC50 (A-375 [11]): 5.55 | pIC50 (HeLa [12]): 5.57 | pIC50 (A549 [13]): 5.18 | pIC50 (HCT-116 [14]): 5.80

Nc1ccccc1NC(=O)c1ccc(CNC(=O)OCc2cccnc2)cc1 [ENTINOSTAT]
inhibition at 8 µM (A-375 [1]): 83.1% | inhibition at 2 µM (A-375 [2]): 30.2% | inhibition at 8 µM (HeLa [3]): 89.8% | inhibition at 2 µM (HeLa [4]): 42.4% | inhibition at 8 µM (A549 [5]): 47.3% | inhibition at 2 µM (A549 [6]): 20% | inhibition at 8 µM (HCT-116 [7]): 72.3% | inhibition at 2 µM (HCT-116 [8]): 67.3% | inhibition at 8 µM (SMMC-7721 [9]): 48.7% | inhibition at 2 µM (SMMC-7721 [10]): 28.2% | pIC50 (HeLa [12]): 5.63 | pIC50 (A549 [13]): 5.15 | Activity (SMMC-7721 [15]): 75.1% | Activity (SMMC-7721 [16]): 9.47% | Activity (SMMC-7721 [17]): 15.43% | Activity (SMMC-7721 [18]): 76.1% | Activity (SMMC-7721 [19]): 9.55% | Activity (SMMC-7721 [20]): 14.35% | Activity (SMMC-7721 [21]): 71.44% | Activity (SMMC-7721 [22]): 14.21% | Activity (SMMC-7721 [23]): 14.35% | viability at 0.25 µM (SMMC-7721 [24]): 91.4% | Activity (SMMC-7721 [25]): 4.13% | Activity (SMMC-7721 [26]): 3.31% | Activity (SMMC-7721 [27]): 1.18% | viability at 1 µM (SMMC-7721 [28]): 81.5% | Activity (SMMC-7721 [29]): 6.66% | Activity (SMMC-7721 [30]): 9.39% | Activity (SMMC-7721 [31]): 2.5% | viability at 4 µM (SMMC-7721 [32]): 53.9% | Activity (SMMC-7721 [33]): 12.5% | Activity (SMMC-7721 [34]): 27.9% | Activity (SMMC-7721 [35]): 5.64% | pIC50 (NIH3T3): 5.62
